Series [1] has as its target T1, Transient receptor potential cation channel subfamily V member 1 (Homo sapiens, UniProt Q8NER1). Nature of the series: Agonistic activity for transient receptor potential vanilloid type 1 expressed in CHO cells. It is filed as functional, cell-based.
For series [2], the target named is T1, Transient receptor potential cation channel subfamily V member 1. Nature of the series: Inhibition of capsaicin-induced calcium uptake by transient receptor potential vanilloid type 1 expressed in CHO cells. The series is classed as functional, cell-based.
A short description of series [3]: Maximum time required to attain Cmax in rat after oral administration of 5 mg/kg. It is filed as ADME, organism-based. As to conditions: in vivo. Also noted: dose 5 mg/kg, route oral.
A short description of series [4]: Half life in rat after intravenous administration of 3 mg/kg. It is filed as ADME, organism-based. Also noted: dose 3 mg/kg, route intravenous. Conditions: in vivo.
A short description of series [5]: Area under concentration time curve from time 0 to infinity was determined in rat after intravenous administration of 3 mg/kg. The series is classed as ADME, organism-based. Also noted: time infinity, dose 3 mg/kg, route intravenous. As to conditions: in vivo.
The nature of series [6]: Plasma clearance in rat after intravenous administration of 3 mg/kg. It is filed as ADME, organism-based. On the set-up: dose 3 mg/kg, route intravenous.
Series [7] can be described thus: Peak plasma concentration in rat after oral administration of 5 mg/kg. On the set-up: dose 5 mg/kg, route oral. It is filed as ADME, organism-based.
Series [8] concerns the target T1, Transient receptor potential cation channel subfamily V member 1. Nature of the series: Inhibition of pH-induced calcium uptake by transient receptor potential vanilloid type 1 expressed in CHO cells. It is filed as functional, cell-based.
A short description of series [9]: Steady state volume of distribution in rat after intravenous administration of 3 mg/kg. The series is classed as ADME, organism-based. Also noted: dose 3 mg/kg, route intravenous. As to conditions: in vivo, read-out: Vss.
A short description of series [10]: Area under concentration time curve from time 0 to infinity was determined in rat after oral administration of 5 mg/kg. It is filed as ADME, organism-based. On the set-up: time infinity, dose 5 mg/kg, route oral. As to conditions: in vivo.
A short description of series [11]: Oral bioavailability in rat (dose 5 mg/kg). As to conditions: in vivo. It is filed as ADME, organism-based.

T1 sequence (Q8NER1 whole entry): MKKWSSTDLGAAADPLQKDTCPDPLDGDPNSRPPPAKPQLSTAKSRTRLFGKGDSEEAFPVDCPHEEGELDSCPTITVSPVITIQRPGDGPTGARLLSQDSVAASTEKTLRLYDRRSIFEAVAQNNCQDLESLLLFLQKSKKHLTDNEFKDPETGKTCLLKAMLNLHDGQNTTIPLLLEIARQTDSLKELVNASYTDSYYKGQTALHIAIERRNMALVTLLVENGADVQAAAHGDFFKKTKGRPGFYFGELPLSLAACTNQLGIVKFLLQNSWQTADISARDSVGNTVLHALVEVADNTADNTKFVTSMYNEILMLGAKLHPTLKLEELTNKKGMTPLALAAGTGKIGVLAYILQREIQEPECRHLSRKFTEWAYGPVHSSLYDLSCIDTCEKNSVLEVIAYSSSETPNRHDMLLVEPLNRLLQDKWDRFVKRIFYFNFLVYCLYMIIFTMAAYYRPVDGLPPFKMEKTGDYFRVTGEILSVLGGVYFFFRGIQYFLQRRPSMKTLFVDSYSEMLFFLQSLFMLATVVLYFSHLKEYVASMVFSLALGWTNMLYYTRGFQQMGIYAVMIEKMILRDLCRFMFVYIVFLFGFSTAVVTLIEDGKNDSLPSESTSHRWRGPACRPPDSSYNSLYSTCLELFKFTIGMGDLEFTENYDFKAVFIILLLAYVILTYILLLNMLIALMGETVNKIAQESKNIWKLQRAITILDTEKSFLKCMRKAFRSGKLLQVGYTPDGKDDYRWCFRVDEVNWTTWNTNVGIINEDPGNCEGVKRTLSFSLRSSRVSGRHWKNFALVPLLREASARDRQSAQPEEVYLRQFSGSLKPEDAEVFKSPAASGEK

For the molecule `COc1cc(NC(=O)/C=C/c2ccc(C(C)(C)C)cc2)ccc1O`, the EC50 in series [1] was 440 nM.
As to `CC(C)(C)c1ccc(/C=C/C(=O)Nc2ccc3c(c2)OCCO3)cc1` (stereo in doubt; 1), the IC50 was 17 nM in series [2] and 150 nM in [8]. The time of peak concentration (Tmax) in [3] was 30 min. In addition, in series [4], the half-life is 66 min. The same molecule yielded an AUC in series [5] of 680 ng·h/mL. For the same molecule, in [6], the clearance was 73.3 mL/min/kg. This molecule showed a Cmax in series [7] of 25 ng/mL. In addition, the Vd in [9] came to 2.1 L/kg. In addition, the AUC(0-inf) in series [10] turned out to be 24 ng·h/mL. In addition, the bioavailability in [11] was 3%.

What is called EC50 is the concentration that produces a half-maximal response. Read a high EC50 as weaker potency. In general, IC50 refers to the midpoint of a concentration-inhibition curve. Usually Tmax stands for the time from dosing to the highest level. A word on the half-life: it is the time in which the quantity being followed falls by half. A high value points to slow decline. A word on the AUC: it is concentration integrated over time. Usually clearance stands for a measure of how efficiently the substance is removed, as volume per time. By Cmax is commonly meant the maximum level reached in the sampled fluid or tissue. For orientation: AUC(0-inf) means the area under the concentration-time curve extrapolated to infinity. A low value points to less exposure. In general, bioavailability refers to dose-corrected exposure relative to a reference, in per cent. Read a low bioavailability as poor availability.

(Values after ChEMBL document CHEMBL1139498, “Discovery of potent, orally available vanilloid receptor-1 antagonists. Structure-activity relationship of N-aryl cinnamides” (J Med Chem, 2005).)
